Test results reported in patent publication US20110077237A1, “KINASE INHIBITORS” (VERTEX PHARMACEUTICALS INCORPORATED, priority 2007, published 2011).

These compounds were tested against PKC delta kinase (Homo sapiens, UniProt Q05655) (assay: PKC Delta coupled-enzyme kinase assay). Conditions: not given.
Sequence of PKC delta kinase (Q05655 whole entry): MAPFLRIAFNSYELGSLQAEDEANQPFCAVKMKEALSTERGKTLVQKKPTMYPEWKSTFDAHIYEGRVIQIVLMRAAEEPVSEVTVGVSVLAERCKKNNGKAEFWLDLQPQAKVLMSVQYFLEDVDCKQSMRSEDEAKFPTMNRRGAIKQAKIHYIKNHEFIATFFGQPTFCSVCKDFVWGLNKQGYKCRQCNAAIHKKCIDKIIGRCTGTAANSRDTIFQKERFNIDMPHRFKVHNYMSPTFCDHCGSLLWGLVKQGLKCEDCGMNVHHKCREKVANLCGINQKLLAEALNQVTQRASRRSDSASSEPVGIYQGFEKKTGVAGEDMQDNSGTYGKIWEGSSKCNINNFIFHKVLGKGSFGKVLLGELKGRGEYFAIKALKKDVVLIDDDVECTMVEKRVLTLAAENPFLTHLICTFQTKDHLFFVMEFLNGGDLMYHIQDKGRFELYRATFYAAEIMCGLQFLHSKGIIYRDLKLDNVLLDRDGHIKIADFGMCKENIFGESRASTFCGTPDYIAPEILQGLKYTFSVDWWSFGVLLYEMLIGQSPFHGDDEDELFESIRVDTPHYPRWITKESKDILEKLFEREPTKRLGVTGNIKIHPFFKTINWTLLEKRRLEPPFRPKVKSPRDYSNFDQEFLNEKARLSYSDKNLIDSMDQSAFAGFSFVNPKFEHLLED
Format: biochemical
Method: An assay buffer solution was prepared which consisted of 100 mM HEPES (pH 7.5), 10 mM MgCl2, 25 mM NaCl, 0.1 mM EDTA and 0.01% Brij. […] To 16 μL of this enzyme buffer, in a 384 well plate, was added 1 μL of VRT stock solution in DMSO. The mixture was allowed to equilibrate for 10 mins at 30° C. […] Ki values were calculated from initial rate data by non-linear regression using the Prism software package (Prism 4.0a, Graphpad Software, San Diego, Calif.).
With Nc1ncccc1C(=O)c1cccc(N2CCC(N)CC2)n1 [compound 86] the Ki was 50 to 500 nM. CC(C)(C)[C@H]1CN(c2cccc(C(=O)c3cccnc3N)n2)CCN1 [compound 225] was tested, and the Ki was 50 to 500 nM. CC1(C)CN(c2cccc(C(=O)c3cccnc3N)n2)CCN1 [compound 226] gave a Ki of 50 to 500 nM. In the case of CC(C)[C@@H]1CN(c2cccc(C(=O)c3cccnc3N)n2)CCN1 [compound 231], the Ki is reported as 500 to 2800 nM.

Same assay, conditions: 46 nM PKC delta, 150 μM ATP, 30° C.; read-out: Ki PKC delta
Work on Nc1ncc(Br)cc1C(=O)c1ncc(C(=O)NCc2ccccc2)s1 [compound 62] yielded a Ki of 50 to 500 nM. With C=Cc1cnc(N)c(C(=O)c2cncc(N3CCCNCC3)n2)c1 [compound 165] the Ki was 50 to 500 nM. In the case of Nc1ncc(-c2ccsc2)cc1C(=O)c1cccc(N2CCNC(c3ccccc3)C2)n1 (centres unmarked) [compound 264], the Ki is reported as 500 to 2800 nM. Nc1ncc(-c2csc3ccccc23)cc1C(=O)c1cccc(N2CCNC(c3ccccc3)C2)n1 (centres unmarked) [compound 266] showed a Ki of 500 to 2800 nM. In the case of Nc1ncc(Br)cc1C(=O)c1nc(N2CCNC(c3ccccc3)C2)ccc1Cl (centres unmarked) [compound 331], the Ki is reported as 50 to 500 nM. CN1CCCN(c2csc(C(=O)c3cc(Br)cnc3N)n2)CC1 [compound 163] showed a Ki of 50 to 500 nM. Work on Cc1cc(C)c(CC2CN(c3cccc(C(=O)c4cccnc4N)n3)CCN2)c(C)c1 (centres unmarked) [compound 244] yielded a Ki greater than 2800 nM. Cc1ccccc1-c1cnc(N)c(C(=O)c2cccc(N3CCCNCC3)n2)c1 [compound 57] was tested, and the Ki was 500 to 2800 nM. Work on C[C@H]1CN(c2cccc(C(=O)c3cccnc3N)n2)[C@@H](C)CN1 [compound 218] yielded a Ki of 50 to 500 nM. Nc1ncccc1C(=O)c1nc(N2CCCNCC2)ccc1Cl [compound 324] showed a Ki of 50 to 500 nM. With CC#Cc1ccc(N2CCNCC2)nc1C(=O)c1cccnc1N [compound 412] the Ki was 50 to 500 nM. Nc1ncccc1C(=O)c1nc(N2CCC(N)CC2)ccc1Cl [compound 322] was tested, and the Ki was 50 to 500 nM. Nc1ccc(-c2cnc(N)c(C(=O)c3cccc(N4CCCNCC4)n3)c2)cc1 [compound 170] gave a Ki of 50 to 500 nM. Cc1sc(N2CCNC[C@H]2C)nc1C(=O)c1cccnc1N [compound 247] gave a Ki of 500 to 2800 nM. Compound Nc1ncc(-c2ccsc2)cc1C(=O)c1cccc(N2CCCNCC2)n1 [compound 201] has a Ki of 50 to 500 nM. Compound CC(C)C[C@H]1CN(c2cccc(C(=O)c3cc(-c4ccccc4)cnc3N)n2)CCN1 [compound 239] has a Ki of 500 to 2800 nM. CN1CCCN(c2cncc(C(=O)c3cc(Br)cnc3N)n2)CC1 [compound 156] gave a Ki of 50 to 500 nM. For CC(C)C[C@H](N)COc1ccc(C(F)(F)F)c(C(=O)c2cccnc2N)n1 [compound 406], the Ki was 50 to 500 nM. Nc1ncc(/C=C/c2ccccc2)cc1C(=O)c1cccc(N2CCCNCC2)n1 [compound 167] showed a Ki of 50 to 500 nM. Nc1ncccc1C(=O)c1nc(N2CCNCC2)ccc1C(F)(F)F [compound 316] was tested, and the Ki was 50 to 500 nM. N#Cc1cnc(N)c(C(=O)c2cccc(N3CCCNCC3)n2)c1 [compound 302] gave a Ki of 500 to 2800 nM. COc1cccc(C2CN(c3cccc(C(=O)c4cccnc4N)n3)CCN2)c1 (centres unmarked) [compound 309] gave a Ki of 500 to 2800 nM. Nc1ncc(Br)cc1C(=O)c1nc(N2CCNCC2)ccc1Cl [compound 329] was tested, and the Ki was 50 to 500 nM. For N#CC1(c2cccc(C(=O)c3cccnc3N)n2)CCNCC1 [compound 280], the Ki was 50 to 500 nM. In the case of Nc1ncc(Br)cc1C(=O)c1cncc(N2CCCNCC2)n1 [compound 149], the Ki is reported as 50 to 500 nM. Compound Nc1ncc(Br)cc1C(=O)c1cccc(N2CCCN(C(=O)c3ccccc3C(F)(F)F)CC2)n1 [compound 150] has a Ki of 50 to 500 nM. CC(C)C(=O)N1CCCN(c2cccc(C(=O)c3cccnc3N)n2)CC1 [compound 34] gave a Ki of 500 to 2800 nM. Cc1ccc(N2CCNC(c3ccccc3)C2)nc1C(=O)c1cccnc1N (centres unmarked) [compound 252] was tested, and the Ki was 50 to 500 nM. Work on CC(C)[C@@H]1CNCCN1c1cccc(C(=O)c2cccnc2N)n1 [compound 237] yielded a Ki of 50 to 500 nM. Compound Nc1ncc(-c2cccc(O)c2)cc1C(=O)c1cccc(N2CCCNCC2)n1 [compound 172] has a Ki of 50 to 500 nM. With Nc1ncc(-c2cc[nH]c2)cc1C(=O)c1cccc(N2CCNC(c3ccccc3)C2)n1 (centres unmarked) [compound 289] the Ki was 50 to 500 nM. With Nc1ncccc1C(=O)c1nc(N2CCNC(c3ccccc3)C2)ccc1C(F)F (centres unmarked) [compound 404] the Ki was 50 to 500 nM. Nc1ncc(-c2cc3ccccc3s2)cc1C(=O)c1cccc(N2CCNC(c3ccccc3)C2)n1 (centres unmarked) [compound 265] gave a Ki of 500 to 2800 nM. Compound N#Cc1ccc(-c2cnc(N)c(C(=O)c3cccc(N4CCNC(c5ccccc5)C4)n3)c2)cc1 (centres unmarked) [compound 271] has a Ki of 50 to 500 nM. Work on Nc1ncc(-c2cccnc2)cc1C(=O)c1cccc(N2CCCNCC2)n1 [compound 58] yielded a Ki of 50 to 500 nM. With Cc1cnc(N)c(C(=O)c2cccc(N3CCCNCC3)n2)c1 [compound 155, (6-(1,4-diazepan-1-yl)pyridin-2-yl)(2-amino-5-methylpyridin-3-yl)methanone bis(2,2,2-trifluoroacetate)] the Ki was 500 to 2800 nM. With Nc1ncc(Br)cc1C(=O)c1cccc(N2CCNCC2)n1 [compound 195] the Ki was 50 to 500 nM. Compound Nc1ncc(-c2cccc(CO)c2)cc1C(=O)c1cccc(N2CCNC(c3ccccc3)C2)n1 (centres unmarked) [compound 283] has a Ki of 50 to 500 nM. With Nc1ncccc1C(=O)c1cccc(N2CCNC(c3cccnc3)C2)n1 (centres unmarked) [compound 249] the Ki was 50 to 500 nM. Work on Nc1ncccc1C(=O)c1cccc(N2CCNC(c3ccc(O)cc3)C2)n1 (centres unmarked) [compound 312] yielded a Ki of 50 to 500 nM. Work on Nc1ncc(-c2c[nH]c3ccccc23)cc1C(=O)c1cccc(N2CCNC(c3ccccc3)C2)n1 (centres unmarked) [compound 268] yielded a Ki of 50 to 500 nM. Nc1ncc(-c2ccc(CO)cc2)cc1C(=O)c1cccc(N2CCNC(c3ccccc3)C2)n1 (centres unmarked) [compound 282] showed a Ki of 50 to 500 nM. Compound Nc1ncc(/C=C/c2ccccc2)cc1C(=O)c1cccc(N2CCNC(c3ccccc3)C2)n1 (centres unmarked) [compound 290] has a Ki of 50 to 500 nM. In the case of Nc1ncccc1C(=O)c1cccc(N2CCNC(c3ccccc3Cl)C2)n1 (centres unmarked) [compound 258], the Ki is reported as 50 to 500 nM. Nc1ncccc1C(=O)c1cccc(N2CCCN(C(=O)CCC(F)(F)F)CC2)n1 [compound 31] gave a Ki of 500 to 2800 nM. With CC1(N)CCN(c2cccc(C(=O)c3cccnc3N)n2)CC1 [compound 305] the Ki was 50 to 500 nM. Compound Nc1ncc(-c2ccccc2)cc1C(=O)c1cccc(N2CCNC(c3ccccc3)C2)n1 (centres unmarked) [compound 262] has a Ki of 500 to 2800 nM. C=Cc1cnc(N)c(C(=O)c2cccc(N3CCCN(C)CC3)n2)c1 [compound 152] gave a Ki of 50 to 500 nM. Compound Nc1ncccc1C(=O)c1cccc(N2CCNC(c3ccc(F)cc3)C2)n1 (centres unmarked) [compound 295] has a Ki of 50 to 500 nM. With CC(C)(C)CCN1CCCN(c2cccc(C(=O)c3cccnc3N)n2)CC1 [compound 44] the Ki was greater than 2800 nM. N#Cc1ccccc1-c1cnc(N)c(C(=O)c2cccc(N3CCNC(c4ccccc4)C3)n2)c1 (centres unmarked) [compound 269] was tested, and the Ki was 50 to 500 nM. Work on Nc1ncc(Cl)cc1C(=O)c1cccc(N2CCCNCC2)n1 [compound 245] yielded a Ki of 50 to 500 nM. With Nc1ncc(C2CC2)cc1C(=O)c1cccc(N2CCCNCC2)n1 [compound 154] the Ki was 50 to 500 nM. For Nc1ncccc1C(=O)c1cccc(N2CCNC(c3ccc(Cl)c(Cl)c3)C2)n1 (centres unmarked) [compound 313], the Ki was 50 to 500 nM. COc1cccc(C2CN(c3ccc(C(F)(F)F)c(C(=O)c4cccnc4N)n3)CCN2)c1 (centres unmarked) [compound 397] was tested, and the Ki was 50 to 500 nM. For Nc1ncc(-c2csc3ccccc23)cc1C(=O)c1cccc(N2CCCNCC2)n1 [compound 200], the Ki was 50 to 500 nM. For CN(C)c1cccc(-c2cccc(C(=O)c3cccnc3N)n2)c1 [compound 293], the Ki was greater than 2800 nM. CCc1cnc(N)c(C(=O)c2cccc(N3CCCN(C)CC3)n2)c1 [compound 153] showed a Ki of 500 to 2800 nM. COc1ccccc1C1CN(c2cccc(C(=O)c3cccnc3N)n2)CCN1 (centres unmarked) [compound 296] gave a Ki of 50 to 500 nM. CC(C)C[C@H]1CN(c2cccc(C(=O)c3cc(Br)cnc3N)n2)CCN1 [compound 232] gave a Ki of 50 to 500 nM. For Nc1cccc(-c2cnc(N)c(C(=O)c3cccc(N4CCCNCC4)n3)c2)c1 [compound 169], the Ki was 50 to 500 nM. Compound N#Cc1cccc(-c2cnc(N)c(C(=O)c3cccc(N4CCNC(c5ccccc5)C4)n3)c2)c1 (centres unmarked) [compound 270] has a Ki of 50 to 500 nM. Work on Nc1ncc(Br)cc1C(=O)c1cccc(N2CCCN(CCO)CC2)n1 [compound 98] yielded a Ki of 50 to 500 nM. Compound Cc1cccc(C2CN(c3cccc(C(=O)c4cccnc4N)n3)CCN2)c1 (centres unmarked) [compound 335] has a Ki of 50 to 500 nM. Compound Nc1ncccc1C(=O)c1cccc(N2CCCN(C(=O)CC3CC3)CC2)n1 [compound 35] has a Ki greater than 2800 nM. Cc1ccc(-c2cnc(N)c(C(=O)c3cccc(N4CCCNCC4)n3)c2)cc1 [compound 59] was tested, and the Ki was 50 to 500 nM. Nc1ncccc1C(=O)c1cccc(N2CCCN(C(=O)Cc3ccccc3)CC2)n1 [compound 33] was tested, and the Ki was 50 to 500 nM. Work on Cc1sc(N2CCNC(c3ccccc3)C2)nc1C(=O)c1cccnc1N (centres unmarked) [compound 256] yielded a Ki of 500 to 2800 nM. For COc1cccc(-c2cnc(N)c(C(=O)c3cccc(N4CCNC(c5ccccc5)C4)n3)c2)c1 (centres unmarked) [compound 286], the Ki was 50 to 500 nM. C=Cc1cnc(N)c(C(=O)c2cccc(N3CCN[C@@H](CC(C)C)C3)n2)c1 [compound 233] showed a Ki of 50 to 500 nM. For Nc1ncccc1C(=O)c1nc(N2CCCNCC2)cs1 [compound 102], the Ki was 50 to 500 nM. In the case of Nc1ncc(Br)cc1C(=O)c1cccc(N2CCCN(C(=O)c3ccccc3Cl)CC2)n1 [compound 151], the Ki is reported as 500 to 2800 nM. Nc1ncccc1C(=O)c1cccc(N2CCN3CCCC3C2)n1 (single isomer, unassigned) [compound 211] was tested, and the Ki was 50 to 500 nM. Work on Cc1cccc(-c2cnc(N)c(C(=O)c3cccc(N4CCCNCC4)n3)c2)c1 [compound 182] yielded a Ki of 50 to 500 nM. Work on COc1ccc(-c2cnc(N)c(C(=O)c3cccc(N4CCCNCC4)n3)c2)cc1 [compound 186] yielded a Ki of 50 to 500 nM. With CC(C)C[C@H]1CN(c2cccc(C(=O)c3cccnc3N)n2)CCN1C(=O)CC(F)(F)F [compound 219] the Ki was greater than 2800 nM. In the case of CC(C)N1CCN(c2cccc(C(=O)c3cc(Br)cnc3N)n2)CC1 [compound 100], the Ki is reported as 50 to 500 nM. CC(C)C[C@H]1CN(c2ccc(OC(F)F)c(C(=O)c3cccnc3N)n2)CCN1 [compound 356] showed a Ki of 50 to 500 nM. Nc1ncc(-c2ccc[nH]2)cc1C(=O)c1cccc(N2CCCNCC2)n1 [compound 183] gave a Ki of 50 to 500 nM.
